# Results from patent US9260417B2, “Therapeutic methods and compositions involving allosteric kinase inhibition” (AMITECH THERAPEUTIC SOLUTIONS, INC., priority 2010, dated 2016).
# How the values were obtained:
# [1] = molecular target: CDK11 (Homo sapiens (Human), UniProt Q9BWU1); assay: KINOMEscan competitive binding assay; conditions: 10 uM
# Method: For the competitive binding assay, test compounds were screened at 10 μM against 70 diverse kinase targets for competitive binding using the KINOMEscan™ technology (Ambit Biosciences) (Karaman, et al. (2008) Nature biotechnology 26:127-132). 11-point Kd curves were determined for hits identified during the initial screen.
# [2] = molecular target: CDK8 (Homo sapiens (Human), UniProt P49336); assay: KINOMEscan competitive binding assay; conditions: 10 uM
# [3] = molecular target: CSNK1E (Homo sapiens (Human), UniProt P49674); assay: KINOMEscan competitive binding assay; conditions: 10 uM
# CSNK1E, sequence (P49674 whole entry): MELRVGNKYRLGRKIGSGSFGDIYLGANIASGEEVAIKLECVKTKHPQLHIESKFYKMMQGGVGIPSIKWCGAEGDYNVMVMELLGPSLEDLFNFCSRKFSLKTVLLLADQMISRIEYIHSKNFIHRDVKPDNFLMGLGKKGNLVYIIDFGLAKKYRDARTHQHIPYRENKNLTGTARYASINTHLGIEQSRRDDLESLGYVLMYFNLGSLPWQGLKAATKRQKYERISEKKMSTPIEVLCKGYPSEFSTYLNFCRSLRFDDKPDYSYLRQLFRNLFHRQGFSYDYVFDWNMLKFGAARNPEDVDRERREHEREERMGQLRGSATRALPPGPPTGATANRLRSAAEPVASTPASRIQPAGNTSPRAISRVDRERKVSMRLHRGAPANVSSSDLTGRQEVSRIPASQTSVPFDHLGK
# [4] = molecular target: MYO3A (Homo sapiens (Human), UniProt Q8NEV4); assay: KINOMEscan competitive binding assay; conditions: 10 uM
# MYO3A, sequence (Q8NEV4 whole entry): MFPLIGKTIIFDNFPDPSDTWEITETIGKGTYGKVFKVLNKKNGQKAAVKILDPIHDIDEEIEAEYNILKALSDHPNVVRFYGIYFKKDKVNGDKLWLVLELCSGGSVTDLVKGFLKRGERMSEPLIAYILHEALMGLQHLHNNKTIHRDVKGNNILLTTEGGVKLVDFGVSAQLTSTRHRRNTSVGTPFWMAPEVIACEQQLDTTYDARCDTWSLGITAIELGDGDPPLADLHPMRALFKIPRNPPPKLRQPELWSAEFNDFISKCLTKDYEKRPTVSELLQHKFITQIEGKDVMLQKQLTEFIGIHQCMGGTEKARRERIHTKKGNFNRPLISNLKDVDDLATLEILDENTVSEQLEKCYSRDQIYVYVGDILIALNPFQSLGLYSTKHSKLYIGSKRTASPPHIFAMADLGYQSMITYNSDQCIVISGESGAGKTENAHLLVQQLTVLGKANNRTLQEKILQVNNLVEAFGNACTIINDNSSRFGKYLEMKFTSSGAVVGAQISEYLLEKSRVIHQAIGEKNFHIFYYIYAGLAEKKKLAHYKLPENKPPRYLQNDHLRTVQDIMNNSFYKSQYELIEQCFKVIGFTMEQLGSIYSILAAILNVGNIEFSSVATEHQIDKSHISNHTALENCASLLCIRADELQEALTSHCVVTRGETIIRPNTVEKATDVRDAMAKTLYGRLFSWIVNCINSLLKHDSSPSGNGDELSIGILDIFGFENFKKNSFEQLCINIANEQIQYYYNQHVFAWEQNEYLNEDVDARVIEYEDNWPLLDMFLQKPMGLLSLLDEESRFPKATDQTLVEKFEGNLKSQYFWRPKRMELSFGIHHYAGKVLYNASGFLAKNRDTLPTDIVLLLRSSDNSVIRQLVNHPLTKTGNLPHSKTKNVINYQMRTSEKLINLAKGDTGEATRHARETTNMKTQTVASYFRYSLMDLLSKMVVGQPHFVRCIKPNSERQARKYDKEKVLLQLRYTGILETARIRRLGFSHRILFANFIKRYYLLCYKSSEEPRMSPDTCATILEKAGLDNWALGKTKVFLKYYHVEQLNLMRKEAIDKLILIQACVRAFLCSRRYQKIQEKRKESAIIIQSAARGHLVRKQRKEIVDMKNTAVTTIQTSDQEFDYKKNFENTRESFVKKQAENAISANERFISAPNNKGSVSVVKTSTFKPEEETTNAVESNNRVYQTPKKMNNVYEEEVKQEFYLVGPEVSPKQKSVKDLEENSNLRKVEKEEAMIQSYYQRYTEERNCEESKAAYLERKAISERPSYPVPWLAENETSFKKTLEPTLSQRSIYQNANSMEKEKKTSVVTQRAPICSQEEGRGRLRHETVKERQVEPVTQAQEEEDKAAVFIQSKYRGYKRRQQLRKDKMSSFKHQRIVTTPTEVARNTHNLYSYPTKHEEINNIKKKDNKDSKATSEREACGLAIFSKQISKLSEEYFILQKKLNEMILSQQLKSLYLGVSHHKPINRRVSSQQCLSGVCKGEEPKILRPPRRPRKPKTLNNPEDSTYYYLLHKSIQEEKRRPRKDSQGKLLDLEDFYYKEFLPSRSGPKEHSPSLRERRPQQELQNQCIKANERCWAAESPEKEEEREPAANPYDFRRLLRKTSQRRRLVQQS
# [5] = tested on: bFGF induced angiogenesis; assay: Mouse Matrigel model of angiogenesis; type: in vivo, mice; conditions: 50 mg/kg, ip, bid
# Method: On day 5 after implantation of the Matrigel, the mice were administered FITC-lectin to label blood vessels. The plugs were removed and visualized by confocal microscopy followed by homogenization and quantification of total FITC. Error bars represent ±SEM. […] Thin sections (5 μm) of the Matrigel plugs were immunostained for vessels with an EC mix (anti-Flk, anti-CD31, anti-VE-Cadherin, and anti-endoglin). […] (FIG. 9C) 6 inhibits phosphorylation of PDGFRβY751 in stromal cells. Thin sections (5 μm) of the Matrigel plugs were immunostained for pericytes and fibroblast with α-smooth muscle actin and for phospho-PDGFRβ Y751 levels. ECs were immunostained with anti-CD31. […] Thin sections (5 μm) of the Matrigel plugs were immunostained for vessels with an EC mix (described as in 9B). TOPRO-3 was used as a nuclear counterstain and TUNEL staining was used to detect apoptotic nuclei. Images were taken using confocal laser scanning microscopy. […]
# Female Nu/Nu mice were implanted with growth-factor depleted Matrigel (BD Biosciences, San Jose, Calif.) in the flank containing either PBS or 200 ng of bFGF (Peprotech). […] Five days after matrigel implantation, mice were tail-vein injected with FITC-lectin and plugs were harvested and imaged by confocal microscopy and quantified after homogenization in ice-cold PBS using a fluorescent microplate reader (Tecan Systems, Inc., San Jose, Calif.). […]
# [6] = tested on: A549 cells; assay: Cell proliferation assay (BrdU ELISA) in A549 cells; type: cell-based; conditions: A549, low serum DMEM (0.5% FBS), 72 h
# Method: A549 cells, which endogenously express oncogenic K-RAS, were plated at 2500 cells/well of a 96-well plate in low serum DMEM (0.5% fetal bovine serum) overnight. The next morning, compounds were serially diluted in DMSO and resuspended in fresh DMEM+0.5% medium, which was added to the cells for 72 h. At this time point the cells were fixed and proliferation was quantified using an ELISA for bromodeoxyuriding incorporation (BrdU ELISA, Millipore, Inc.). BrdU incorporation occurs during S phase and is the classical method for determining cell proliferation rates. In FIG. 14B-C, BrdU incorporation is expressed as a percentage of the BrdU incorporation occurring in cells treated with 0.1% DMSO as control. A dotted line represents the growth rate of cells treated with DMSO alone. […] (FIG. 13C)
# [7] = tested on: MDA-MB231 human breast carcinoma cells; assay: MDA-MB231 orthotopic breast cancer xenograft; type: in vivo, mice
# Method: Tumors were generated by injection of MDA-MB231 human breast carcinoma cells (1×10^6 tumor cells in 50 μl of sterile PBS) into the mammary fatpad of 6-8 week old female Nu/Nu mice. Tumors were allowed to grow and the mice were randomized into two groups with an average tumor volume of 100 mm^3. […] Tumor growth was monitored by measuring the tumor length and width with precision calipers every 2 days and calculating tumor volume using the following formula: Tumor volume=0.5*(length)*(width)^2, provided the smaller measurement was utilized as the length. […] Scale bar 20 μM. […] Cells were lysed in RIPA buffer (50 mM Tris pH 7.4, 100 mM NaCl, 0.1% SDS, 1.0% TritonX-100, 1% deoxycholate) supplemented with complete protease inhibitor mixture (Roche), 50 mM NaF, and 1 mM Na3VO4 and centrifuged at 13,000 g for 10 min at 4° C. Protein concentration was determined by BCA assay and 30 μg of protein was loaded per lane of 10% SDS-PAGE gel. Immunohistochemistry in FIG. 18A was performed according to the manufacturer's recommendations (Vector Labs), on […] sections of paraffin-embedded tumors from the orthotopic xenograft breast cancer mouse model (MDA-MB231). For phospho-S338 CRAF immunohistochemistry, antigen retrieval was performed in citrate buffer pH 6.0 at 95° C. for 20 min. […]
# CDK11, sequence (Q9BWU1 whole entry): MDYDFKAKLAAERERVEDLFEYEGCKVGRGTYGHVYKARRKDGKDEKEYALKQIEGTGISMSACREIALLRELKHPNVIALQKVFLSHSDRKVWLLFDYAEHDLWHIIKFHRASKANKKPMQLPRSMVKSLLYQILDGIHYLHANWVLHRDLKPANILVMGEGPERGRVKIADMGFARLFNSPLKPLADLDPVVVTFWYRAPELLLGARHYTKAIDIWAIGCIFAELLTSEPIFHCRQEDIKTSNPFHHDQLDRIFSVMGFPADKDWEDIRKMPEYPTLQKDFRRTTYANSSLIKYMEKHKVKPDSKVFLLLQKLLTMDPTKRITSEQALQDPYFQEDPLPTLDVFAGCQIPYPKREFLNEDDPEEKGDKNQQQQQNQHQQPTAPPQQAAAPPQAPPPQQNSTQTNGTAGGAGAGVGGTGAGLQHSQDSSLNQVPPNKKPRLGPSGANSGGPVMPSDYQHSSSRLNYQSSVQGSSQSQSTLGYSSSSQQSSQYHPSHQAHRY
# CDK8, sequence (P49336 whole entry): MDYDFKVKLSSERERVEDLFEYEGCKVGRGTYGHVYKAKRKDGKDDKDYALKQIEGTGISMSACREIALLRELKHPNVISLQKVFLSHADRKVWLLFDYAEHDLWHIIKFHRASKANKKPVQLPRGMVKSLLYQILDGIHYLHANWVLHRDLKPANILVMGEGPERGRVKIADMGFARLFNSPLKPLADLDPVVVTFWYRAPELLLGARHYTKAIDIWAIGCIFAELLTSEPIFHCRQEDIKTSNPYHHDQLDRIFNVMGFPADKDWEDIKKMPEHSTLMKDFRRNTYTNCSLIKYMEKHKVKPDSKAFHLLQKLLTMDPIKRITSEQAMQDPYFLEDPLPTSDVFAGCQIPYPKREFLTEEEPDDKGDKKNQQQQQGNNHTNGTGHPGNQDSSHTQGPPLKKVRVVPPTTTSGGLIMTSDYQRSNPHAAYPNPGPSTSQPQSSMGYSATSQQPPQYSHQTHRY
structure (smiles),measurement,setting,value
CSc1nc(N)cc(Oc2ccc(-c3nnc(Nc4cccc(C(F)(F)F)c4)[nH]3)cc2)n1 [Compound 6],% Control,[1],32%
same,% Control,[2],67%
same,% Control,[3],47%
same,% Control,[4],94%
same,p-ERK staining in endothelial cells of Matrigel plugs,[5],suppression in the p-ERK staining
same,p-PDGFRβY751 signal in stromal compartment of Matrigel plugs,[5],complete suppression
same,cell proliferation (BrdU incorporation) versus DMSO control,[6],inhibitor cell proliferation
same,breast tumor growth compared to vehicle,"[7]; 50 mg/kg, bid, ip",suppresses tumor growth
same,phosphorylation of CRAF S338 in breast tumors,"[7]; three consecutive days, tumors resected 1 h after final dose",clearly inhibits phosphorylation of S338
